Laboratory results published in patent US10774039B2, “Cyclopropene amino acids and methods” (United Kingdom Research and Innovation, priority 2014, dated 2020).

Assays:
[1] = In vitro labelling of purified sfGFP150 proteins with tetrazine-dye conjugate 4a, time course and rate constant; settings: restated in example 6
Experimental: FIG. 2C: Determining the rate constant for labelling of sfGFP-3 (10.6 sfGFP incorporating 3 at position 150), with 10 equivalents of 4a. 2 nmol of purified sfGFP-3, (10.6 μM in 20 mM Tris-HCl, 100 mM NaCl, 2 mM EDTA, pH 7.4) were incubated with 20 nmol of tetrazine-dye conjugate 4a (10 μl of a 2 mM solution in DMSO). At different time points 8 μl, aliquots were taken from the solution and quenched with a 700-fold excess of BCN and plunged into liquid nitrogen. Samples were mixed with NuPAGE LDS sample buffer supplemented with 5% β-mercaptoethanol, heated for 10 min to 90° C. and analyzed by 4-12% SDS page. The amounts of labelled proteins were quantified by scanning the fluorescent bands with a Typhoon Trio phosphoimager (GE Life Sciences). Bands were quantified with the ImageQuant™ TL software (GE Life Sciences) using rubber band background subtraction. The rate constant was determined by fitting the data to a single-exponential equation. The calculated observed rate k′ was divided by the concentration of 4a to obtain rate constant k for the reaction. Measurements were done in triplicate. All data processing was performed using Kaleidagraph software (Synergy Software, Reading, UK). […]

[2] = biological target: PylRS/tRNACUA pair (Methanosarcina mazei, UniProt Q8PWY1); assay: Dual luciferase reporter assay on ovary extract of flies fed amino acid; format: in vivo, D. melanogaster; parameters: expressed in transfected cells; host or cells: transgenic Drosophila melanogaster, ovaries (UAS-PylRS driven by nos-vp16-GAL4); settings: flies fed 10 mM amino acid
Experimental: Dual luciferase assay on ovary extract from 10 female flies expressing Triple-Rep-L in the presence or absence of 10 mM 1 or 10 mM 3. […] The error bars represent the standard deviation of 3 technical replicates from a single biological replicate. FIG. 10B: Site-specific incorporation of 3 (or 1) into GFP_TAG_mCherry-HA in flies expressing PylRS/PyltRNACUA. The full-length protein resulting from unnatural amino acid incorporation is detected by anti-HA western blot. FIG. 10C: Specific labelling of encoded 3 with tetrazine probes. Flies were fed with no amino acid, amino acid 1 (500 flies) or amino acid 3 (100 flies). […] The full-length protein containing the unnatural amino acid was immunoprecipitated from lysed ovaries with anti-GFP beads. The beads were labelled (4g, 4 μM, 200 μL, PBS, RT, 2 h) washed.
Transgenic lines were created by P element insertion using a Drosophila embryo injection service (BestGene Inc.). Lines were generated using the following plasmids: pFT58 (Ala), pFT60 (Ser), pFT62 (Leu) and pFT63 (Met). nos-Gal4-VP16 (Bloomington 4937) and MS1096-Gal4 (Bloomington 8860) were used as Gal4 drivers. All flies were grown at 25° C. on standard Iberian medium. Flies were fed unnatural amino acids by mixing dried yeast with the appropriate concentration of amino acid (usually 10 mM) diluted in dH2O to make a paste. Ovaries were prepared from females that were grown on Iberian fly food supplemented with a yeast paste with or without the amino acid for a minimum of 48 hours. For proteome labelling experiments transgenic male flies of constructs FT58, FT60, FT62 and FT63 were crossed with nos-vp16-GAL4 virgins to generate FT58/nos-vp16-GAL4, FT60/nos-vp16-GAL4, FT62/nos-vp16-GAL4 and FT63/nos-vp16-GAL4 respectively.
Ovaries from 10 females of Triple Rep-L flies recombined with nos-Gal4-VP16 fed 3, 1 or no amino acid were dissected in 100 μl 1× Passive lysis buffer and processed for luciferase assays as previously described^20.

Chain of PylRS/tRNACUA pair (Q8PWY1 whole entry, the tested form may be a part): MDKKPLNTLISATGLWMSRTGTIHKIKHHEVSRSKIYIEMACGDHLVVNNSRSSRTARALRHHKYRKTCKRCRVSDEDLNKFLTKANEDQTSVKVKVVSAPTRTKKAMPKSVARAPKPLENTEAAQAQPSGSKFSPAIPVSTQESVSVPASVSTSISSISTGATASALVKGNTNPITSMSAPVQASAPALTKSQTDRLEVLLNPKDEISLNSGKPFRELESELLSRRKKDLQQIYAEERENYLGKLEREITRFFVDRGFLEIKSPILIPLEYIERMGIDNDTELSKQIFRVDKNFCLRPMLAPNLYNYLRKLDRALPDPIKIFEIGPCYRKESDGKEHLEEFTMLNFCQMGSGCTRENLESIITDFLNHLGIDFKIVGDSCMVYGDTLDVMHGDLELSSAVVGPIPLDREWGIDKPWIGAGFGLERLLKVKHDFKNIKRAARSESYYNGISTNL

Question: Which results are given for CC1=CC1COC(=O)NCCCC[C@H](N)C(=O)O (stereo partly drawn) [amino acid 3, N^ε-[((2-methylcycloprop-2-en-1-yl)methoxy)carbonyl]-L-lysine]?
Answer: on-protein rate constants of reaction with tetrazines [1]: 27 M⁻¹ s⁻¹; dual luciferase signal compared with 1 [2]: larger; luciferase signal dependent on amino acid addition [2]: strong luciferase signal
